Reference: patent US11160816B2, “Composition for treatment of Alzheimer's disease” (GLOVIA COMPANY LIMITED, priority 2017, dated 2021)

Experiments:
[1] = tested on: oligodendrocyte precursor cells (OPCs); assay: Cultivation of oligodendrocyte precursor cells, phase-contrast observation of proliferation and differentiation (FIG. 2); format: cell-based, mice; details: final concentration of each 10 μM, cultivated for 48 hours, compared with control (PBS alone)
[2] = tested on: oligodendrocyte progenitor cell; details: cultivation in the presence of the substance; cited from earlier work
[3] = tested on: oligodendrocyte precursor cells (OPCs); assay: O1 antibody immunostaining of cultivated OPCs, ratio of O1 positive oligodendrocytes (FIG. 3); format: cell-based, mice; details: final concentration of each 0.1 mM, 48 hours, compared with control
stroke patients = details: cited from earlier work
[4] = tested on: mild to moderate Alzheimer patients; details: 400 mg capsule 3 times per day for 180 days; cited from earlier work
[5] = stroke patients, nonpatent document 6

| SMILES | proliferation and differentiation of OPCs (phase-contrast photos) [1] | generation of p-21.5kDaMBP, proliferation and differentiation of oligodendrocyte progenitor cell [2] | ratio of O1 positive oligodendrocytes against the number of total cells [3] | cognitive abilities (stroke patients; 1000 mg per day for 28 days, then oral 400 mg per day for 5 months, 2,044 stroke patients) | harmful adverse drug reactions, share of patients (stroke patients; [5]) [%] | headache, share of patients (stroke patients; [5]) [%] | heartburn, share of patients (stroke patients; [5]) [%] | insomnia/agitation, share of patients (stroke patients; [5]) [%] | patients who hoped for stop of treatment (stroke patients; [5]) [%] | vomiturition/emesis, share of patients (stroke patients; [5]) [%] | cognitive function [4] |
| --- | --- | --- | --- | --- | --- | --- | --- | --- | --- | --- | --- |
| C[C@@H]1O[C@@H](OC[C@H]2O[C@@H](Oc3cc(O)c4c(c3)O[C@H](c3ccc(O)cc3)CC4=O)[C@H](O)[C@@H](O)[C@@H]2O)[C@H](O)[C@H](O)[C@H]1O [narirutin] | proliferation and differentiation of OPCs proceeds | promoted the generation of p-21.5kDaMBP |  |  |  |  |  |  |  |  |  |
| C[N+](C)(C)CCOP(=O)([O-])OC[C@H](O)CO [α-GPC, L-α-glycerylphosphorylcholine] | proliferation and differentiation of OPCs proceeds |  | hardly increases compared with the control | recovery of the patients' cognitive abilities | 2.14 | 0.2 | 0.7 | 0.4 | 0.7 | 0.5 | improving effect on cognitive function |
| COc1ccc([C@@H]2CC(=O)c3c(O)cc(O[C@@H]4O[C@H](CO[C@@H]5O[C@@H](C)[C@H](O)[C@@H](O)[C@H]5O)[C@@H](O)[C@H](O)[C@H]4O)cc3O2)cc1O [hesperidin] | proliferation and differentiation of OPCs proceeds | promoted the generation of p-21.5kDaMBP |  |  |  |  |  |  |  |  |  |
